From patent US8039496B2, “Therapeutic compounds” (Allergan, Inc., priority 2007, dated 2011) come the findings set out here.

SMILES strings stand for the structures. Where two headings read alike, the source gives them in different places.

The target in data set [1] is T1, hEP2 (Homo sapiens, UniProt P43116). The data set is described as follows: hEP2 cAMP functional assay. Type of data set: cell-based. The text has this:
(§1) U.S. patent application Ser. No. 11/553,143, filed on Oct. 26, 2006, describes the methods used to obtain the in vitro data in the table below.

Data set [2] concerns the target T1, hEP2. The data set is described as follows: hEP2 flipr functional assay. Type of data set: cell-based.
Text: as §1

Data set [3] addresses T2, hEP4 (Homo sapiens, UniProt P35408). Description: hEP4 binding (Ki).
Text: as §1

Data set [4] concerns the target T2, hEP4. The data set is described as follows: hEP4 flipr functional assay. Format: cell-based.
Text: as §1

The target of data set [5] is T1, hEP2. Description: hEP2 binding (Ki).
Text: as §1

Data set [6] relates to normotensive dogs. Description: Ocular surface hyperemia in normotensive dogs. Type of data set: in vivo. More on the design: scale not given here. The settings on record: once daily for 5 days. As for the experimental part:
(§2) U.S. Pat. No. 7,091,231 describes the methods used for these in vivo tests. 5-{3-[1R,2S,3R,5R)-5-Chloro-2-(3,5-dichloro-phenoxymethyl)-3-hydroxy-cyclopentyl]-propyl}-thiophene-2-carboxylic acid was tested at multiple concentrations in normotensive dogs, dosing once daily for 5 days. At 0.1%, the maximum intraocular pressure (IOP) decrease from baseline was 7.5 mmHg (48%) at 30 h; the maximum ocular surface hyperemia (OSH) score was 2.75 at 26 h. At 0.01%, the maximum IOP decrease from baseline was 7.5 mmHg (43%) at 76 h; the maximum OSH score was 2.0 at 26 h. At 0.005%, the maximum IOP decrease from baseline was 6.6 mmHg (35%) at 78 h; the maximum OSH score was 1.75 at 74 h. This compound was also tested in laser-induced hypertensive monkeys, using one single day dose. At 0.01%, the maximum IOP decrease from baseline was 20.2 mmHg (53%) at 24 h.

Data set [7] concerns normotensive dogs. The data set is described as follows: Intraocular pressure in normotensive dogs. Format: in vivo. The conditions noted are these: Canis lupus familiaris, topical, 120 h, once daily for 5 days, read-out: maximum IOP decrease from baseline (percent). As for the experimental part: as §2
The mark [8] stands for this setting: the 3rd table, read-out: EP2 data cAMP EC50.
Where [9] appears, read: the 3rd table, read-out: EP2 data flipr EC50.
[10] abbreviates: the 3rd table, read-out: EP4 data KI.
The mark [11] stands for this setting: the 3rd table, read-out: EP4 data flipr EC50.
Where [12] appears, read: the 3rd table, read-out: EP2 data Ki.
[13] abbreviates: the 2nd table, read-out: hEP2 cAMP EC50.
Setting [14] is: the 2nd table, read-out: hEP2 flipr EC50.
Where [15] appears, read: the 2nd table, read-out: hEP4 Ki.
The mark [16] stands for this setting: the 2nd table, read-out: hEP4 flipr EC50.
The mark [17] stands for this setting: the 2nd table, read-out: hEP2 Ki.

T1 sequence (P43116 whole entry): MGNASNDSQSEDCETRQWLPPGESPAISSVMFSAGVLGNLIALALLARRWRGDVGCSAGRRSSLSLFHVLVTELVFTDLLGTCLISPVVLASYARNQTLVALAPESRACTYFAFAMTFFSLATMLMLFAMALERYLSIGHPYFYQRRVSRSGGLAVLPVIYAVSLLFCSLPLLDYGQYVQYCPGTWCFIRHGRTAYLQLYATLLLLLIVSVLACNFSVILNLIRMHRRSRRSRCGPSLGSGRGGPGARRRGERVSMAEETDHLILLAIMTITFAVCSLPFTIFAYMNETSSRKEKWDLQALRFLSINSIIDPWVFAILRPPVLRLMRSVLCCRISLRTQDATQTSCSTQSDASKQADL
T2 sequence (P35408 whole entry): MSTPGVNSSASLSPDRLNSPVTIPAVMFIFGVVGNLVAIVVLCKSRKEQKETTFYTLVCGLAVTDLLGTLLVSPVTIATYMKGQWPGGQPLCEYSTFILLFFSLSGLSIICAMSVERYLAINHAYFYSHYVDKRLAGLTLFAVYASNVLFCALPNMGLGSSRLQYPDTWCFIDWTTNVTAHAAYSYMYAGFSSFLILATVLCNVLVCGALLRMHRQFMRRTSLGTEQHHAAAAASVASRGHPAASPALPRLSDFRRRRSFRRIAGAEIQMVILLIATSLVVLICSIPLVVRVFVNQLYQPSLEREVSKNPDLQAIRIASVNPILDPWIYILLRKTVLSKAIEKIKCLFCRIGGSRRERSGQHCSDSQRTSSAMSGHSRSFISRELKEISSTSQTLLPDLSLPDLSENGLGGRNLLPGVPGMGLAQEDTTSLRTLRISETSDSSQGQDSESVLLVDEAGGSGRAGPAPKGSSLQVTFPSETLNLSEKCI

A word on the EC50: it is the midpoint of the concentration-response curve. The Ki is a measure of affinity in units of concentration, obtained from inhibition or displacement. Turning to `CCc1cc(OC[C@@H]2[C@@H](CCCc3ccc(C(=O)O)s3)[C@H](Cl)C[C@H]2O)ccc1Cl` [5-(3-((1R,2S,3R,5R)-5-chloro-2-((4-chloro-3-ethylphenoxy)methyl)-3-hydroxycyclopentyl)propyl)thiophene-2-carboxylic acid], the EC50 was found to be 0.4 nM at hEP2 [1] (setting [8]), 31400 nM on hEP2 [2] (setting [9]) and 26500 nM on hEP4 [4] (setting [11]). In addition, the inhibitory constant (Ki) on hEP4 [3] (setting [10]) was 177 nM; at hEP2 [5] (setting [12]), 2 nM.
The corresponding values for `CCCCCCCc1ccc(OC[C@@H]2[C@@H](CCCc3ccc(C(=O)O)s3)[C@H](Cl)C[C@H]2O)cc1` [5-(3-((1R,2S,3R,5R)-5-chloro-2-((4-heptylphenoxy)methyl)-3-hydroxycyclopentyl)propyl)thiophene-2-carboxylic acid] are 46 nM, 6820 nM, more than 10000 nM, 4520 nM and 378 nM.
The like results for `O=C(O)c1ccc(CCC[C@@H]2[C@@H](COc3ccc4c(c3)CCCC4)[C@H](O)C[C@H]2Cl)s1` [5-(3-((1R,2S,3R,5R)-5-chloro-3-hydroxy-2-((5,6,7,8-tetrahydronaphthalen-2-yloxy)methyl)cyclopentyl)propyl)thiophene-2-carboxylic acid] were, in that order, 12 nM, 2490 nM, more than 10000 nM, 800 nM and 38 nM.
The like results for `O=C(O)c1ccc(CCC[C@@H]2[C@@H](COc3ccc4ccccc4c3)[C@H](O)C[C@H]2Cl)s1` [5-(3-((1R,2S,3R,5R)-5-chloro-3-hydroxy-2-((naphthalen-2-yloxy)methyl)cyclopentyl)propyl)thiophene-2-carboxylic acid] were, in that order, 3 nM, more than 10000 nM, more than 10000 nM, 227 nM and 3 nM.
As to `O=C(O)c1ccc(CCC[C@@H]2[C@@H](COc3cc(Cl)cc(CO)c3)CC[C@H]2Cl)s1` [5-{3-[(1R,2R,5S)-2-Chloro-5-(3-chloro-5-hydroxymethyl-phenoxymethyl)-cyclopentyl]-propyl}-thiophene-2-carboxylic acid], the half-maximal effective concentration (EC50) is 5.2 nM at hEP2 [1] (setting [13]), 6750 nM on hEP2 [2] (setting [14]) and more than 10000 nM at hEP4 [4] (setting [16]). Besides, the Ki on hEP4 [3] (setting [15]) came out at 197 nM; on hEP2 [5] (setting [17]), 12 nM.
As to `O=C(O)c1ccc(CCC[C@H]2C(=O)CC[C@@H]2COc2cc(Cl)cc(CO)c2)s1` [5-{3-[(1R,2S)-2-(3-Chloro-5-hydroxymethyl-phenoxymethyl)-5-oxo-cyclopentyl]-propyl}-thiophene-2-carboxylic acid], the EC50 at hEP2 [1] (setting [13]) is 2 nM; at hEP2 [2] (setting [14]) it was 297 nM; at hEP4 [4] (setting [16]) it was more than 10000 nM. The inhibitory constant (Ki) on hEP4 [3] (setting [15]) was 179 nM; at hEP2 [5] (setting [17]) it was 39 nM.
Turning to `O=C(O)c1ccc(CCC[C@@H]2[C@@H](COc3cc(Cl)cc(Cl)c3)[C@H](O)C[C@H]2F)s1` [5-{3-[(1R,2S,3R,5R)-2-(3,5-Dichloro-phenoxymethyl)-5-fluoro-3-hydroxy-cyclopentyl]-propyl}-thiophene-2-carboxylic acid], the values for the EC50 at hEP2 [1] (setting [13]), at hEP2 [2] (setting [14]) and on hEP4 [4] (setting [16]) were 0.7 nM, 83 nM and more than 10000 nM, respectively. Besides, the inhibition constant Ki at hEP4 [3] (setting [15]) is 310 nM; on hEP2 [5] (setting [17]), 8 nM.
As to `O=C(O)CCC/C=C\C[C@@H]1[C@@H](COc2cc(Cl)cc(Cl)c2)[C@H](O)C[C@H]1Cl` [(Z)-7-[(1R,2S,3R,5R)-5-Chloro-2-(3,5-dichloro-phenoxymethyl)-3-hydroxy-cyclopentyl]-hept-5-enoic acid], the results for the “maximum ocular surface hyperemia (OSH) score” value in the data set with normotensive dogs [6] (0.05%) and with normotensive dogs [6] (0.1%) were 0.6 and 1.3, respectively.
`CC(=O)OCCc1cc(Cl)cc(OC[C@@H]2[C@@H](C/C=C\CCCC(=O)O)[C@H](Cl)C[C@H]2O)c1` [(Z)-7-{(1R,2S,3R,5R)-2-[3-(2-Acetoxy-ethyl)-5-chloro-phenoxymethyl]-5-chloro-3-hydroxy-cyclopentyl}-hept-5-enoic acid]: the concentration for a half-maximal effect (EC50) stood at 18 nM at hEP2 [1] (setting [13]) and 4990 nM on hEP2 [2] (setting [14]). For the same compound, at hEP2 [5] (setting [17]), the Ki stood at 82 nM.
With `O=C(O)c1ccc(CCC[C@@H]2[C@@H](COc3cc(Cl)cc(CO)c3)[C@H](O)C[C@H]2Cl)s1` [Example 5, 5-{3-[(1R,2S,3R,5R)-5-Chloro-2-(3-chloro-5-hydroxymethyl-phenoxymethyl)-3-hydroxy-cyclopentyl]-propyl}-thiophene-2-carboxylic acid], the inhibition in vivo at 0.1 % in the data set with normotensive dogs [7] is 34%. Also, the “maximum ocular surface hyperemia (OSH) score” value in the data set on normotensive dogs [6] (0.1%) is 1.9.
As for `Cc1cc(C)cc(OC[C@@H]2[C@@H](CCCc3ccc(C(=O)O)s3)[C@H](Cl)C[C@H]2O)c1` [Example 6, 5-{3-[(1R,2S,3R,5R)-5-Chloro-2-(3,5-dimethyl-phenoxymethyl)-3-hydroxy-cyclopentyl]-propyl}-thiophene-2-carboxylic acid], the inhibition in vivo at 0.01 % with normotensive dogs [7] is 33%. The “maximum ocular surface hyperemia (OSH) score” value in the data set with normotensive dogs [6] (0.01%) came out at 1.9.
The like results for `N#C[C@@H]1C[C@@H](O)[C@H](COc2cc(Cl)cc(Cl)c2)[C@H]1CCCc1ccc(C(=O)O)s1` [Example 9, 5-{3-[(1S,2S,3R,5R)-5-Cyano-2-(3,5-dichloro-phenoxymethyl)-3-hydroxy-cyclopentyl]-propyl}-thiophene-2-carboxylic acid] were, in that order, 17% and 1.2.
On to `CC(C)OC(=O)c1ccc(CCC[C@@H]2[C@@H](COc3cc(Cl)cc(CO)c3)[C@H](O)C[C@H]2Cl)s1` [Example 14, Isopropyl 5-{3-[(1R,2S,3R,5R)-5-Chloro-2-(3-chloro-5-hydroxymethyl-phenoxymethyl)-3-hydroxy-cyclopentyl]-propyl}-thiophene-2-carboxylate], for which the inhibition in vivo at 0.1 % in the data set with normotensive dogs [7] was determined as 36%. Further, in the data set on normotensive dogs [6] (0.1%), the “maximum ocular surface hyperemia (OSH) score” value is on record as 1.9.
For the compound `O=C(O)c1ccc(CCC[C@@H]2[C@@H](COc3cc(Cl)cc(Cl)c3)[C@H](O)C[C@H]2Cl)s1` [drawing 35, 5-{3-[(1R,2S,3R,5R)-5-Chloro-2-(3,5-dichloro-phenoxymethyl)-3-hydroxy-cyclopentyl]-propyl}-thiophene-2-carboxylic acid], the EC50 is 0.12 nM at hEP2 [1] (setting [13]), 7010 nM on hEP2 [2] (setting [14]) and more than 10000 nM on hEP4 [4] (setting [16]). The values for the inhibition constant (Ki) on hEP4 [3] (setting [15]) and on hEP2 [5] (setting [17]) were 366 nM and 2 nM, respectively.
As to `O=C(O)c1ccc(CCC[C@@H]2[C@@H](COc3cc(Cl)cc(CO)c3)[C@H](O)C[C@H]2Cl)s1` [drawing 36, 5-{3-[(1R,2S,3R,5R)-5-Chloro-2-(3-chloro-5-hydroxymethyl-phenoxymethyl)-3-hydroxy-cyclopentyl]-propyl}-thiophene-2-carboxylic acid], the concentration for a half-maximal effect (EC50) on hEP2 [1] (setting [13]) was 0.26 nM; at hEP2 [2] (setting [14]), 3280 nM; at hEP4 [4] (setting [16]), more than 10000 nM. In addition, at hEP2 [5] (setting [17]), the inhibition constant (Ki) was 3 nM.
For `Cc1cc(C)cc(OC[C@@H]2[C@@H](CCCc3ccc(C(=O)O)s3)[C@H](Cl)C[C@H]2O)c1` [drawing 37, 5-{3-[(1R,2S,3R,5R)-5-Chloro-2-(3,5-dimethyl-phenoxymethyl)-3-hydroxy-cyclopentyl]-propyl}-thiophene-2-carboxylic acid], the concentration giving a half-maximal response (EC50) on hEP2 [1] (setting [13]) amounted to 0.2 nM; on hEP2 [2] (setting [14]), 31 nM; at hEP4 [4] (setting [16]), 2940 nM. Besides, the values for the Ki on hEP4 [3] (setting [15]) and on hEP2 [5] (setting [17]) were 158 nM and 2 nM, respectively.
As for `N#C[C@@H]1C[C@@H](O)[C@H](COc2cc(Cl)cc(Cl)c2)[C@H]1CCCc1ccc(C(=O)O)s1` [drawing 40, 5-{3-[(1S,2S,3R,5R)-5-Cyano-2-(3,5-dichloro-phenoxymethyl)-3-hydroxy-cyclopentyl]-propyl}-thiophene-2-carboxylic acid], the EC50 on hEP2 [1] (setting [13]) is 0.2 nM; at hEP2 [2] (setting [14]), 15 nM; on hEP4 [4] (setting [16]), more than 10000 nM. In addition, the figures for the Ki on hEP4 [3] (setting [15]) and on hEP2 [5] (setting [17]) were 149 nM and 3 nM, respectively.
